Assay results taken from PMC12396409, “Screening and hit evaluation of a microbial metabolite library against the pathogenic Plasmodium falciparum and Toxoplasma gondii parasites” (International Journal for Parasitology: Drugs and Drug …, 2025).
Read-outs that look alike come from different tables or passages of the source.

How the values were obtained:
[1] = test system: P. falciparum 3D7 parasites; assay: P. falciparum growth inhibition assay, 2-cycle (120 h treatment), delayed-death screen and dose-response; type: cell-based, Plasmodium falciparum; details: for activity at 2 µg/mL: Plasmodium falciparum
[2] = test system: T. gondii RH strain (RH-Tub-eYFP) tachyzoites; assay: microbe, parasite or virus in culture; type: cell-based, Toxoplasma gondii; details: 72 h; for percent parasite growth at 2 µg/mL: Toxoplasma gondii
[3] = test system: P. falciparum 3D7 parasites; assay: P. falciparum growth inhibition assay, 1-cycle (72 h treatment), SYBR DNA staining (library screen at 2 μg/mL and dose-response); type: cell-based, Plasmodium falciparum; details: for activity at 2 µg/mL: Plasmodium falciparum
[4] = P. falciparum, 120 h, screen at 2 μg/mL, replicate 1
[5] = P. falciparum, 120 h, screen at 2 μg/mL, replicate 2
[6] = T. gondii, screen at 2 μg/mL, replicate 1
[7] = T. gondii, screen at 2 μg/mL, replicate 2
[8] = P. falciparum, 72 h, screen at 2 μg/mL, replicate 1
[9] = P. falciparum, 72 h, screen at 2 μg/mL, replicate 2
[10] = library screen at 2 μg/mL, 120 h, % growth, replicate 1
[11] = library screen at 2 μg/mL, 120 h, % growth, replicate 2
[12] = library screen at 2 μg/mL, % growth, replicate 1
[13] = library screen at 2 μg/mL, % growth, replicate 2
[14] = library screen at 2 μg/mL, 72 h, % growth, replicate 1
[15] = library screen at 2 μg/mL, 72 h, % growth, replicate 2

How did the Pf_120h_%Growth_Rep1 [1, 4] turn out when `CN[C@@H]1C[C@H]2O[C@@](C)([C@@H]1OC)n1c3ccccc3c3c4c(c5c6ccccc6n2c5c31)C(=O)N[C@H]4O` [UCN-02] was run?
The Pf_120h_%Growth_Rep1 was 30.31%.

And the Pf_120h_%Growth_Rep2 [1, 5]?
Its Pf_120h_%Growth_Rep2 is 6.39%.

What about the Tg_72h_%Growth_Rep1 [2, 6] of the same molecule?
Its Tg_72h_%Growth_Rep1 is 2.39%.

And the Tg_72h_%Growth_Rep2 [2, 7]?
The Tg_72h_%Growth_Rep2 was 1.72%.

And the Pf_72h_%Growth_Rep1 [3, 8]?
Its Pf_72h_%Growth_Rep1 is 0.18%.

What about the Pf_72h_%Growth_Rep2 [3, 9] of the same molecule?
The Pf_72h_%Growth_Rep2 was -6.73%.

`C=CC(C)(C)[C@]12C[C@@H]3C(=O)Nc4ccccc4C(=O)N3[C@H]1N(C(C)=O)c1ccccc12` [Acetylaszonalenin] was tested. Which Pf_120h_%Growth_Rep1 [1, 10] did it give?
Its Pf_120h_%Growth_Rep1 is 140.03%.

What about the Pf_120h_%Growth_Rep2 [1, 11] of the same molecule?
Its Pf_120h_%Growth_Rep2 is 96.89%.

What about the Tg_72h_%Growth_Rep1 [2, 12] of the same molecule?
The Tg_72h_%Growth_Rep1 was 84.46%.

And the Tg_72h_%Growth_Rep2 [2, 13]?
Its Tg_72h_%Growth_Rep2 is 90.00%.

And the Pf_72h_%Growth_Rep1 [3, 14]?
The Pf_72h_%Growth_Rep1 was 98.36%.

And the Pf_72h_%Growth_Rep2 [3, 15]?
The Pf_72h_%Growth_Rep2 was 85.99%.

What does the source list for `CC[C@H]1CC2CN3CCc4c([nH]c5ccc(OC)cc45)[C@](C(=O)OC)(C2)[C@H]13` (stereo in doubt) [Voacangine]?
activity at 2 µg/mL ([1]; 3D7, P. falciparum, 120 h, screen at 2 μg/mL, replicate 1, read-out: Pf_120h_%Growth_Rep1): 164%; activity at 2 µg/mL ([1]; 3D7, P. falciparum, 120 h, screen at 2 μg/mL, replicate 2, read-out: Pf_120h_%Growth_Rep2): 91%; percent parasite growth at 2 µg/mL ([2]; T. gondii, screen at 2 μg/mL, replicate 1, read-out: Tg_72h_%Growth_Rep1): 89.9%; percent parasite growth at 2 µg/mL ([2]; T. gondii, screen at 2 μg/mL, replicate 2, read-out: Tg_72h_%Growth_Rep2): 96.7%; activity at 2 µg/mL ([3]; 3D7, P. falciparum, 72 h, screen at 2 μg/mL, replicate 1, read-out: Pf_72h_%Growth_Rep1): 86.5%; activity at 2 µg/mL ([3]; 3D7, P. falciparum, 72 h, screen at 2 μg/mL, replicate 2, read-out: Pf_72h_%Growth_Rep2): 89.9%

For `CC[C@H](C)[C@H]1O[C@]2(C=C[C@@H]1C)C[C@@H]1C[C@@H](C/C=C(\C)[C@@H](O[C@H]3C[C@H](OC)[C@@H](O[C@H]4C[C@H](OC)[C@H](O)[C@H](C)O4)[C@H](C)O3)[C@@H](C)C=C/C=C3\CO[C@@H]4[C@H](O)C(C)C=C(C(=O)O1)[C@]34O)O2` (stereo partly shown) [Avermectin B1a, delta2-], which Pf_120h_%Growth_Rep1 [1, 10] is on record?
Its Pf_120h_%Growth_Rep1 is 4.88%.

What about the Pf_120h_%Growth_Rep2 [1, 11] of the same molecule?
Its Pf_120h_%Growth_Rep2 is -9.99%.

What about the Tg_72h_%Growth_Rep1 [2, 12] of the same molecule?
Its Tg_72h_%Growth_Rep1 is 29.57%.

And the Tg_72h_%Growth_Rep2 [2, 13]?
The Tg_72h_%Growth_Rep2 was 35.45%.

And the Pf_72h_%Growth_Rep1 [3, 14]?
The Pf_72h_%Growth_Rep1 was 4.74%.

And the Pf_72h_%Growth_Rep2 [3, 15]?
Its Pf_72h_%Growth_Rep2 is 5.45%.

What does the source list for `CN1C(=O)c2ccccc2-n2c(nc3ccccc3c2=O)/C1=C\c1ccccc1` [Benzomalvin B]?
Pf_120h_%Growth_Rep1 [1, 10]: 2.26%; Pf_120h_%Growth_Rep2 [1, 11]: 61.47%; Tg_72h_%Growth_Rep1 [2, 12]: 108.53%; Tg_72h_%Growth_Rep2 [2, 13]: 82.96%; Mean ([3]; P. falciparum, 72 h, 2 μg/mL, mean of both replicates, growth (% of control)): 40.89; Pf_72h_%Growth_Rep1 [3, 14]: 1.98%; Pf_72h_%Growth_Rep2 [3, 15]: 79.80%

`COC[C@@H](C[C@H]1O[C@@](O)([C@H](O)[C@@H]2C[C@H](OC)[C@@H](O)CC/C=C(C)/C=C/[C@@H](O[C@@H]3O[C@@H](C)[C@H](OC)[C@@H](O)[C@@H]3O)[C@H](C)/C=C(C)/C=C(C)/C=C(\C)C(=O)O2)[C@H](C)[C@@H](O)[C@H]1C)OC1C[C@](C)(O)[C@@H](O[C@H]2C[C@@H](OC)[C@H](O)[C@@H](C)O2)[C@H](C)O1` (stereo partly shown) [Apoptolidin] was tested. Which activity at 2 µg/mL ([1]; 3D7, 120 h, library screen at 2 μg/mL, 120 h, % growth, replicate 1, read-out: Pf_120h_%Growth_Rep1) did it give?
Its activity at 2 µg/mL is 34.5%.

And the activity at 2 µg/mL ([1]; 3D7, 120 h, library screen at 2 μg/mL, 120 h, % growth, replicate 2, read-out: Pf_120h_%Growth_Rep2)?
Its activity at 2 µg/mL is 23.8%.

And the percent parasite growth at 2 µg/mL ([2]; library screen at 2 μg/mL, % growth, replicate 1, read-out: Tg_72h_%Growth_Rep1)?
The percent parasite growth at 2 µg/mL was 76.4%.

What about the percent parasite growth at 2 µg/mL ([2]; library screen at 2 μg/mL, % growth, replicate 2, read-out: Tg_72h_%Growth_Rep2) of the same molecule?
The percent parasite growth at 2 µg/mL was 73%.

And the activity at 2 µg/mL ([3]; 3D7, 72 h, library screen at 2 μg/mL, 72 h, % growth, replicate 1, read-out: Pf_72h_%Growth_Rep1)?
Its activity at 2 µg/mL is 59%.

What about the activity at 2 µg/mL ([3]; 3D7, 72 h, library screen at 2 μg/mL, 72 h, % growth, replicate 2, read-out: Pf_72h_%Growth_Rep2) of the same molecule?
Its activity at 2 µg/mL is 49.8%.

Which Pf_120h_%Growth_Rep1 [1, 4] does the source give for `CC(=O)OC1CCC(C)C2C1C=C(C)C1C(C)=CCCC(C)=CC3(C)C=C(C)C(C)CC34OC(=O)C(=C(O)C12C)C4=O` (stereo not shown) [Tetromycin A] here?
Its Pf_120h_%Growth_Rep1 is 96.09%.

And the Pf_120h_%Growth_Rep2 [1, 5]?
Its Pf_120h_%Growth_Rep2 is 91.15%.

And the Tg_72h_%Growth_Rep1 [2, 6]?
The Tg_72h_%Growth_Rep1 was 141.34%.

And the Tg_72h_%Growth_Rep2 [2, 7]?
Its Tg_72h_%Growth_Rep2 is 89.51%.

And the Pf_72h_%Growth_Rep1 [3, 8]?
The Pf_72h_%Growth_Rep1 was 87.03%.

And the Pf_72h_%Growth_Rep2 [3, 9]?
Its Pf_72h_%Growth_Rep2 is 84.23%.

Which results are given for `C[C@H]1OC(=O)C=C[C@@H](O)[C@@H](O)CCCCCCCC[C@@H]1O` [Berkeleylactone F]?
Pf_120h_%Growth_Rep1 [1, 10]: 146.18%; Pf_120h_%Growth_Rep2 [1, 11]: 96.20%; Tg_72h_%Growth_Rep1 [2, 12]: 83.11%; Tg_72h_%Growth_Rep2 [2, 13]: 88.17%; Pf_72h_%Growth_Rep1 [3, 14]: 78.45%; Pf_72h_%Growth_Rep2 [3, 15]: 83.14%

What does the source list for `COC1CC(OC2C(C)OC(OC3C(C)=CCC4CC(CC5(CCC(C)C(C(C)C)O5)O4)OC(=O)C4C=C(C)C(O)C5OCC(=CC=CC3C)C45O)CC2OC)OC(C)C1O` (stereo not shown) [BIA-I1117]?
Pf_120h_%Growth_Rep1 ([1]; P. falciparum 3D7, 120 h, library screen at 2 μg/mL, % growth, replicate 1): 88.89%; Pf_120h_%Growth_Rep2 ([1]; P. falciparum 3D7, 120 h, library screen at 2 μg/mL, % growth, replicate 2): 109.63%; Tg_72h_%Growth_Rep1 ([2]; T. gondii RH, library screen at 2 μg/mL, % growth, replicate 1): 121.89%; Tg_72h_%Growth_Rep2 ([2]; T. gondii RH, library screen at 2 μg/mL, % growth, replicate 2): 92.41%; Pf_72h_%Growth_Rep1 ([3]; P. falciparum 3D7, 72 h, library screen at 2 μg/mL, % growth, replicate 1): 83.64%; Pf_72h_%Growth_Rep2 ([3]; P. falciparum 3D7, 72 h, library screen at 2 μg/mL, % growth, replicate 2): 117.79%
